{"source": "patent US20220273822A1", "about": "“ANIMAL MODEL OF IDIOPATHIC PULMONARY FIBROSIS, ITS CONSTRUCTION METHOD AND USE” (National Institute of Biological Sciences, Beijing, priority 2019, published 2022)", "origin": "cited, not measured here", "details": "IPF", "data": [{"smiles": "COC(=O)c1ccc2c(c1)NC(=O)/C2=C(\\Nc1ccc(N(C)C(=O)CN2CCN(C)CC2)cc1)c1ccccc1", "note": "[nintedanib]", "values": [{"measurement": "mortality", "value": "tendency of reducing mortality"}, {"measurement": "survival time", "value": "failed to show significantly increased survival time"}]}, {"smiles": "Cc1ccc(=O)n(-c2ccccc2)c1", "note": "[pirfenidone]", "values": [{"measurement": "mortality", "value": "tendency of reducing mortality"}, {"measurement": "survival time", "value": "failed to show significantly increased survival time"}]}]}
